In article PMC5618429, “Kempopeptin C, a Novel Marine-Derived Serine Protease Inhibitor Targeting Invasive Breast Cancer” (Marine Drugs, 2017):

Assays:
[1] = Cell viability assay (MTT); assay type: cell-based; conditions: human, MDA-MB-231 breast cancer cells; MDA-MB-231, 48 h, all concentrations tested (32 µM to 320 pM)
Procedure: MDA-MB-231 cells were seeded in 96-well plates (10,000 cells/well). After 24 h of incubation, the cells were treated with different concentrations of kempopeptins B or C (2 or 3) or the solvent control (DMSO). Following 48 h of incubation, cell viability was measured using 3-(4,5-dimethylthiazol-2-yl)-2,5-diphenyltetrazolium bromide according to the manufacturer's instructions (Promega, Madison, WI, USA).
Effect of kempopeptins on the viability of MDA-MB-231 cells
Kempopeptin C Kempopeptin B
Figure S1. Effect of kempopeptins B and C (2) and (3) on the viability of MDA -MB-231 breast cancer cells.

[2] = target: T1, recombinant human matriptase (Homo sapiens, UniProt Q9Y5Y6); assay: Matriptase inhibition assay; assay type: biochemical; conditions: mean ± SD, n = 3; 15-min preincubation; read-out: IC50 against matriptase
T1 construct: purchased R&D Systems 3946-SE-010
T1 sequence (Q9Y5Y6 615-855 limits assumed): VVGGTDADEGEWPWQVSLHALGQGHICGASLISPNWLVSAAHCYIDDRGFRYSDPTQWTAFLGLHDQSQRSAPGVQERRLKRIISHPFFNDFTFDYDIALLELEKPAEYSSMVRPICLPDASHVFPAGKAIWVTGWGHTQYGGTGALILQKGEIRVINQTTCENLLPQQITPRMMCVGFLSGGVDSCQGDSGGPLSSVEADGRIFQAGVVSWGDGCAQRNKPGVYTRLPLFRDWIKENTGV
Procedure: In matriptase inhibition assay, 50 µL of recombinant human matriptase (R&D Systems, Minneapolis, MN, USA; 3946-SE-010) ([…] prepared in assay buffer: 50 mM Tris, 50 mM NaCl, 0.01% Tween 20; pH 9.0) and 1 µL of different concentrations of inhibitors (2 and 3; half log dilutions prepared in DMSO) or the solvent control were pre-incubated at room temperature for 15 min. Following the incubation period, 50 µL of the 50 µM substrate solution (Boc-Gln-Ala-Arg-AMC) (R&D Systems, Minneapolis, MN, USA; ES014) were added to each well, and the enzyme activity was monitored by measuring the increase in fluorescence signal from the fluorescently-labeled substrate every 30 s for 30 min (Ex 380 nm, Em 460 nm) using the SpectraMax M5 plate reader (Molecular Devices).

[3] = tested on: CDCP1 cleavage in MDA-MB-231 cells; assay: Cleavage of cellular CDCP1 in MDA-MB-231 supplemented with exogenous recombinant human matriptase; assay type: cell-based; conditions: MDA-MB-231 + 10 nM recombinant human matriptase, 24 h, different concentrations
Procedure: Figure 6 The effect of kempopeptins B and C (2 and 3) on CDCP1 cleavage in MDA-MB-231. (A) MDA-MB-231 cells were treated for 72 h with different concentrations of the test compounds. Following 72 h, the lysates were collected and analyzed by Western blot. (B) MDA-MB-231 cells were treated at different time points with 100 µM of kempopeptin C (3). Following 6 h, 12 h and 24 h, the lysates were collected and analyzed by Western blot. Dexamethasone (Dex) was used as a positive control. (C) MDA-MB-231 cells treated for 24 h with different concentrations of 3 in the presence of 10 nM recombinant human matriptase. Cell lysates were harvested and analyzed by Western blot. (D) Densitometric analysis of the full-length, LMW of CDCP1 and actin bands in (C).
In this experiment, we aimed to investigate the ability of 3 to inhibit cell-expressed CDCP1 rather than the purified recombinant protein in vitro. In contrast to the well-controlled in vitro assay, several factors might influence the extracellular matriptase activity in the cell-based assay; for example, the occurrence of additional secreted cellular factors, differences in pH, in addition to the unknown enzyme:substrate:inhibitor ratio. […] Additionally, matriptase is one of at least two other proteases known to process CDCP1, where plasmin is the main protease cleaving CDCP1 in MDA-MB-231 cells. […]

MDA-MB-231 cells = assay: Transwell migration assay; assay type: cell-based; conditions: Homo sapiens, MDA-MB-231, 48 h
Procedure: The significance of our compounds in inhibiting matriptase and targeting its downstream cellular substrates was evaluated by examining the effect of kempopeptin C (3) on the migration of highly invasive breast cancer cells. The effect on migration was investigated by treating MDA-MB-231 cells with different concentrations of the test compound or solvent control for 48 h. Following 48 h, migrated cells were stained with crystal violet, and the number was counted under the microscope. […] To rule out that proteasome inhibition might be responsible for the migration inhibitory activity, the effect of kempopeptin C (3) on the trypsin-like activity of proteasomes was tested in vitro.
Figure 7 The effect of kempopeptin C (3) on the migration of MDA-MB-231. MDA-MB-231 were incubated for 48 h in the presence of different concentrations (0, 10 or 20 µM) of 3 and the effect was compared to the solvent control. The graph represents the number of migrated cells in each treatment group. The asterisks denote the significance of p ≤ 0.01 relative to the solvent control using the two-tailed unpaired t-test. Data are presented as the mean ± SD, n = 3.
The migration assays were performed using BD falcon cell culture inserts (353097; PET membrane, 8-µm pore size; Fisher Scientific; Waltham, MA, USA) in 24-well plates. […]

## CCCC(=O)NC(C(=O)NC1C(=O)NC(CCCCN)C(=O)NC2CCC(O)N(C2=O)C(C(C)CC)C(=O)N(C)C(Cc2ccc(OC)c(Cl)c2)C(=O)NC(C(C)C)C(=O)OC1C)C(C)C (stereo not drawn) [Kempopeptin C, kempopeptin C]
[1]
  viability at 48 h: > 90%
[2]
  IC50: 280 ± 30 nM
[3]
  Reduction of cleavage of cellular CDCP1 in presence of exogenous matriptase: reduced the cleavage of CDCP1
[3]; listed as Kempopeptin C (3)
  Reduction of cleavage of cellular CDCP1 in presence of exogenous matriptase: slight dose-dependent reduction in the cleavage of the full-length form
MDA-MB-231 cells; MDA-MB-231, 10 µM
  inhibition at 10 µM: 37%
MDA-MB-231 cells; MDA-MB-231, 20 µM
  inhibition at 20 µM: 60%
